According to US7708999B2, “Remedies for arthritis” (Kyowa Hakko Kirin Co., Ltd., priority 2001, dated 2010):

Tests used:
[1] = tested on: rat adjuvant arthritis model; test: Rat adjuvant arthritis model; type: in vivo; details: for Bone destruction score / Bone destruction score (% inhibition): Table 2; for Bone destruction score: soft X-ray of calcaneus, adjuvant-untreated paw, day 21, maximum 5, mean ± standard error, oral comparators; for Bone destruction score (% inhibition) / inhibition of the increase in paw volume, adjuvant-untreated paw: vs solvent group; for inhibition of the increase in paw volume, adjuvant-untreated paw: day 21, oral, 1 mL per 100 g: sodium diclofenac 0.3 mg/mL, methotrexate 0.01 mg/mL, prednisolone 0.3 mg/mL; for inhibition of the increase (decrease) in amount of glycosaminoglycan in urine / inhibition of the increase (decrease) in amount of deoxypyridinoline in urine: urine day 20 to 21, oral comparators vs solvent group; for inhibition of the increase (decrease) in amount of glycosaminoglycan in urine: diclofenac and prednisolone not significant; for inhibition of the increase (decrease) in amount of deoxypyridinoline in urine: methotrexate and prednisolone not significant
Description: The rat adjuvant arthritis model was performed in the following manner according to the method of Pearson et al. (Pearson CM. et al., Arthritis Rheum., 5, 654-658, 1962) using Lewis rats (female, 8 weeks old, Japan Charles River).
Mycobacterium butyricum (manufactured by Difco) was suspended in a liquid paraffin (manufactured by Wako Pure Chemical Industries, Ltd.) to a final concentration of 6 mg/mL, and sterilized with a autoclave. The resulting solution was intradermally injected into the rat right hind pad in an amount of 100 μL for sensitization. One group consisted of 8 to 10 rats. Anti-FGF-8 neutralizing antibody KM1334 was dissolved in saline to a final concentration of 2 mg/mL. The solution was intraperitoneally administered to a KM1334 administrated group once a day at a dose of 0.5 mL per 100 g of the body weight for each rat on the sensitization day of the rat adjuvant arthritis model and on days 3, 7, 10, 14 and 17 from the sensitization. To saline administrated group, only saline was intraperitoneally administered instead of the anti-FGF-8 neutralizing antibody KM1334 solution. Further, sodium diclofenac, an antiinflammatory agent, was dissolved in a 0.5 w/v % methyl cellulose solution to a final concentration of 0.3 mg/mL, and the solution was orally administered to a sodium diclofenac administrated group as a positive control once a day at a dose of 1 mL per 100 g of the body weight on days 4, 7 to 11 and 14 to 18 from the adjuvant sensitization day. 50 mg of methotrexate® for injection (manufactured by Wyeth Japan) as a metabolic antagonist was dissolved in a 0.5 w/v % methyl cellulose solution to a final concentration of 0.01 mg/mL, and the solution was administered to a methotrexate administrated group in the same manner as in the sodium diclofenac administrated group. Prednisolone (manufactured by Sigma-Aldrich), a steroidal agent, was suspended in a 0.5 w/v % methyl cellulose solution to a final concentration of 0.3 mg/mL, and the suspension was administered to a prednisolone administrated group in the same manner as in the sodium diclofenac administrated group. Further, a 0.5 w/v % methyl cellulose solution alone was orally administered to a solvent administrated group in the same manner. An untreated group was used, and it was not subjected to sensitization with Mycobacterium butyricum and administration of an agent. The volumes of the adjuvant-treated paw and the adjuvant-untreated paw were measured as time goes by using a device for measuring edemas of rat hind paw (TK-101, manufactured by Unicom).
Using urine collected for 24 hours at day 20 and day 21 after the sensitization, the amounts of glycosaminoglycan, deoxypyridinoline, hydroxyproline and creatinine in urine were measured. The amount of glycosaminoglycan in urine was measured by the DMMB method described in Example 1. The amount of hydroxyproline in urine was measured by the method of Ikeda et al. (Ikeda Shingo et al., Tokyo Eiken Nenpo, 36 277-282, 1985). That is, 0.8 mL of hydrochloric acid for amino acid analysis (manufactured by Kanto Kagaku) was added to 0.8 mL of urine to hydrolyze at 110° C. for 15 hours. To 0.5 mL of the hydrolyzed sample was added 2 mL of a 1.2 mol/L sodium hydroxide solution for neutralization. 1 mL of isopropanol was added to 0.5 mL of the neutralized sample, and 1 ml of an oxidant solution was added. The mixture was stirred well, and allowed to stand at room temperature for 5 minutes. […]

[2] = biological target: T1, compound 1 as a partial peptide of FGF-8 (Homo sapiens, UniProt P55075); test: FGF-8 binding activity by BIAcore 2000, immobilized biotin-labeled compound 1; details: antibody 16.7 μg/mL; FGF-8 peptide immobilized 35 RU
T1 construct: 17; made in house; host or cells: chemical synthesis
T1 sequence (P55075 with tags, fused parts or gaps isoform P55075-3 limits assumed): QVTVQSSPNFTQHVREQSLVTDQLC
Description: In order to examine the FGF-8 binding activity of the anti-FGF-8 neutralizing CDR-grafted antibodies obtained in 5. of Reference Example 3, the FGF-8 binding activity of the various anti-FGF-8 neutralizing CDR-grafted antibodies was measured and compared through BIAcore 2000 using compound 1 as a partial peptide of FGF-8 with the C terminal labeled with biotin in the following manner. The anti-FGF-8 neutralizing chimeric antibody KM3034 derived from CHO/DG44 cells obtained in 3. (1) of Reference Example 1 was used as a positive control.
HBS-EP was used as a sample diluent and a buffer during measurement. First, Sensor Chip SA (manufactured by BIACORE) was installed, and 5 μL of compound 1 labeled with biotin which had been adjusted to 0.05 μg/mL was added at a flow rate of 5 μL/min. Then, 5 μL of a 10 mmol/L glycine-hydrochloride solution (pH 1.5) was added twice continuously to wash the tip surface. The immobilization amount of the FGF-8 peptide was 35 RU.
60 μL of each of the antibody solutions was added to an FGF-8 peptide immobilized flow cell at a flow rate of 20 μL/min, and the dissociation reaction was then monitored for 3 minutes. After the dissociation reaction, 20 μL of 10 mmol/L glycine-hydrochloride solution (pH 1.5) was added twice continuously to regenerate the chip surface. This cycle was performed on the antibody solution at various concentrations (from 50 to 1.85 μg/mL) to obtain sensor grams at various concentrations. The sensor grams of the respective antibodies were converted to sensor grams of specific reactions by deduceing a sensor gram obtained using the chimeric antibody KM871 to GD3 as a negative control.

`CN(Cc1cnc2nc(N)nc(N)c2n1)c1ccc(C(=O)N[C@@H](CCC(=O)O)C(=O)O)cc1` [methotrexate] was tested, and the Bone destruction score [1] was 0.9 ± 0.4, the “Bone destruction score (% inhibition)” value [1] was 80% and the “inhibition of the increase in paw volume, adjuvant-untreated paw” value [1] was 90%. The “inhibition of the increase (decrease) in amount of glycosaminoglycan in urine” value [1] was 79% and the “inhibition of the increase (decrease) in amount of deoxypyridinoline in urine” value [1] was 34%.

For `C[C@]12C=CC(=O)C=C1CC[C@@H]1[C@@H]2[C@@H](O)C[C@@]2(C)[C@H]1CC[C@]2(O)C(=O)CO` [prednisolone, Prednisolone], the Bone destruction score [1] was 1.8 ± 0.7, the “Bone destruction score (% inhibition)” value [1] was 61% and the “inhibition of the increase in paw volume, adjuvant-untreated paw” value [1] was 51%. For the same molecule, the “inhibition of the increase (decrease) in amount of glycosaminoglycan in urine” value [1] was 18% and the “inhibition of the increase (decrease) in amount of deoxypyridinoline in urine” value [1] was 38%.

B1: KM3034: anti-FGF-8 neutralizing human chimeric antibody, VH SEQ ID NO. 5, VL SEQ ID NO. 6, human γ1/κ, CHO/DG44 cell-derived (FERM BP-7836) (antibody, listed as Mus musculus, V domains shown)
VH: QVQLQQSGAEVARPGASVKLSCKASGYTFTDYYLNWVKQRSGQGLEWIGEIDPGSDSIYYNENLEGRATLTADKSSSTAYMQLNSLTSEDSAVYFCARYGYSRYDVRFVYWGQGTLVTVST
VL: DVLMTQTPLSLPVSLGDQASISCRSSQSLVHSNGRTYLEWYLQKPGQSPKVLIYKVSNRISGVPDRFSGSGSGTDFTLKISRVEAEDLGVYFCFQGSHVPYTFGGGTKLEIK
For B1, the “binding reaction [resonance signal (RU)]” value [2] was “the highest binding reaction”.

B2: HV0LV6/CHO: CHO/DG44 cell-derived anti-FGF-8 neutralizing CDR-grafted antibody, VH HV.0 (SEQ ID NO. 18), VL LV.6 (SEQ ID NO. 21) (antibody, V domains shown)
VH: QVQLVQSGAEVKKPGASVKVSCKASGYTFTDYYLNWVRQAPGQGLEWMGEIDPGSDSIYYNENLEGRVTITADTSTSTAYMELSSLRSEDTAVYYCARYGYSRYDVRFVYWGQGTLVTVSS
VL: DVVMTQSPLSLPVSLGEPASISCRSSQSLVHSNGRTYLEWYLQKPGQSPKVLIYKVSNRISGVPDRFSGSGSGTDFTLKISRVEAEDVGVYFCFQGSHVPYTFGQGTKVEIK
modifications: HV.0, a designed amino acid sequence of VH of an anti-FGF-8 CDR-grafted neutralizing antibody; LV.6, a designed amino acid sequence of VL of an anti-FGF-8 CDR-grafted neutralizing antibody
B2 was tested, and the “binding reaction [resonance signal (RU)]” value [2] was “the highest binding reaction”.

B3: HV0LV3-2/CHO: CHO/DG44 cell-derived anti-FGF-8 neutralizing CDR-grafted antibody, VH HV.0, VL LV.3-2 (SEQ ID NO. 45) (antibody, V domains shown)
VH: QVQLVQSGAEVKKPGASVKVSCKASGYTFTDYYLNWVRQAPGQGLEWMGEIDPGSDSIYYNENLEGRVTITADTSTSTAYMELSSLRSEDTAVYYCARYGYSRYDVRFVYWGQGTLVTVSS
VL: DIVMTQSPLSLPVSLGEPASISCRSSQSLVHSNGRTYLEWYLQKPGQSPQLLIYKVSNRISGVPDRFSGSGSGTDFTLKISRVEAEDVGVYFCFQGSHVPYTFGQGTKVEIK
B3 was tested, and the “binding reaction [resonance signal (RU)]” value [2] was “the lower binding reaction”.

B4: HV0LV2-2/CHO: CHO/DG44 cell-derived anti-FGF-8 neutralizing CDR-grafted antibody, VH HV.0, VL LV.2-2 (SEQ ID NO. 47) (antibody, V domains shown)
VH: QVQLVQSGAEVKKPGASVKVSCKASGYTFTDYYLNWVRQAPGQGLEWMGEIDPGSDSIYYNENLEGRVTITADTSTSTAYMELSSLRSEDTAVYYCARYGYSRYDVRFVYWGQGTLVTVSS
VL: DVVMTQSPLSLPVTPGEPASISCRSSQSLVHSNGRTYLEWYLQKPGQSPQLLIYKVSNRISGVPDRFSGSGSGTDFTLKISRVEAEDVGVYFCFQGSHVPYTFGQGTKVEIK
In the case of B4, the “binding reaction [resonance signal (RU)]” value [2] is reported as “the lower binding reaction”.

B5: HV0LV4-2/CHO: CHO/DG44 cell-derived anti-FGF-8 neutralizing CDR-grafted antibody, VH HV.0, VL LV.4-2 (SEQ ID NO. 43) (antibody, V domains shown)
VH: QVQLVQSGAEVKKPGASVKVSCKASGYTFTDYYLNWVRQAPGQGLEWMGEIDPGSDSIYYNENLEGRVTITADTSTSTAYMELSSLRSEDTAVYYCARYGYSRYDVRFVYWGQGTLVTVSS
VL: DVVMTQSPLSLPVSLGEPASISCRSSQSLVHSNGRTYLEWYLQKPGQSPQLLIYKVSNRISGVPDRFSGSGSGTDFTLKISRVEAEDVGVYFCFQGSHVPYTFGQGTKVEIK
With B5 the “binding reaction [resonance signal (RU)]” value [2] was “the lower binding reaction”.

B6: HV0LV0/CHO: CHO/DG44 cell-derived anti-FGF-8 neutralizing CDR-grafted antibody, VH HV.0, VL LV.0 (antibody, V domains shown)
VH: QVQLVQSGAEVKKPGASVKVSCKASGYTFTDYYLNWVRQAPGQGLEWMGEIDPGSDSIYYNENLEGRVTITADTSTSTAYMELSSLRSEDTAVYYCARYGYSRYDVRFVYWGQGTLVTVSS
VL: DIVMTQSPLSLPVTPGEPASISCRSSQSLVHSNGRTYLEWYLQKPGQSPQLLIYKVSNRISGVPDRFSGSGSGTDFTLKISRVEAEDVGVYYCFQGSHVPYTFGQGTKVEIK
In the case of B6, the “binding reaction [resonance signal (RU)]” value [2] is reported as “the lowest binding reaction”.
